Data published in US8716530B2, “Facially amphiphilic polyaryl and polyarylalkynyl polymers and oligomers and uses thereof” (The Trustess of the University of Pennsylvania, priority 2004, dated 2014).
Values after ≈ are worked out from the molar mass of the structure shown. Values joined by “and” are separate entries in the source; they are usually repeats but may differ in a detail not shown here. Equal values may be shown once. Read-outs that look alike come from different tables or passages of the source.

Tests used:
E. coli [1] = experiment: Modified NCCLS microbroth dilution MIC assay; type: cell-based; details: Escherichia coli
Bacillus cereus = type: cell-based
Escherichia coli = type: cell-based
Enterobacter cloacae = type: cell-based
Enterococcus faecalis = type: cell-based
Klebsiella aerogenes = type: cell-based
Klebsiella pneumoniae = type: cell-based
Listeria monocytogenes = type: cell-based
Moraxella catarrhalis = type: cell-based
Neisseria sicca = type: cell-based
Proteus mirabilis = type: cell-based
Pseudomonas stuarti = type: cell-based
Proteus vulgaris = type: cell-based
Pseudomonas aeruginosa = type: cell-based
Serratia marcescens = type: cell-based
Staphylococcus aureus [2] = type: cell-based
[3] = test system: Staphylococcus epidermidis; type: cell-based
[4] = test system: Staphylococcus saprophyticus; type: cell-based
Streptococcus agalactiae = type: cell-based
B. anthracis [5] = experiment: microbe, parasite or virus in culture; type: cell-based, Bacillus anthracis
Y. pestis = experiment: microbe, parasite or virus in culture; type: cell-based; details: Yersinia pestis, 30 h, read-out: MIC100 Y. pestis (30 hr)
B. anthracis [6] = experiment: microbe, parasite or virus in culture; type: cell-based; details: Bacillus anthracis
F. tularensis = experiment: microbe, parasite or virus in culture; type: cell-based; details: Francisella tularensis
Staphylococcus aureus [7] = experiment: MIC100, control microbial agent, NCCLS guidelines; type: cell-based; details: strain ATCC29213, control organism (Table 5), read-out: MIC100 S. aureus ATCC29213
E. coli [8] = experiment: MIC100, modified NCCLS microbroth dilution (Table 6); type: cell-based; details: Escherichia coli
[9] = test system: S. aureus and methicillin-resistant S. aureus (MRSA); experiment: as above; type: cell-based; details: Staphylococcus aureus
Candida albicans = experiment: MIC100, clinical isolates of hospital-acquired pathogens (Table 7); type: cell-based; details: one table line per isolate, RPMI synthetic medium, in µg/mL
Haemophilus influenzae = experiment: as above; type: cell-based; details: Mueller Hinton+NAD+yeast extract+hematin, in µg/mL
Streptococcus pyogenes = experiment: as above; type: cell-based; details: Mueller Hinton+2-5% lysed horse blood, in µg/mL
Streptococcus pneumoniae = experiment: as above; type: cell-based
[10] = test system: Lovenox inhibition of Factor Xa (FXa) activity; experiment: Chromogenic FXa assay: antagonism of Lovenox inhibition of Factor Xa; type: biochemical; details: fixed concentration of Lovenox, chromogenic substrate S-2765
Method: To assess the potential of the phenylalkynyl oligomers to act as antagonists of the low molecular weight heparins (LMWH), Compound 3 was assayed for its ability to antagonize the inhibition of Factor Xa (FXa) activity by the LMWH Lovenox was determined for Compound 3. Briefly, FXa activity in the presence of Lovenox and inhibitor was measured in a chromogenic assay using reagents purchased from DiaPharma. […] In the assay setup for Schild-plot analysis (KB determination), varying concentrations of Lovenox were incubated with AT for 5 minutes. Different concentrations of inhibitor were added to each row of wells, to construct curves of fixed inhibitor concentration, and lightly shaken and incubated for 20 minutes. FXa was then added and reaction was shaken and incubated for 10 minutes. The substrate (S-2765) was then added to initiate the clotting cascade and the 96-well plate was then shaken and read every 30 seconds for 7 minutes at 405 nm on a ThermoLabsystems Multiskan Spectrum. The single curve Lovenox titration experiments (IC50 determination) consisted of the same procedure, but with a fixed concentration of Lovenox (determined by a titration curve in the absence of inhibitor). The analysis of each curve was performed using GraphPad Prism version 4.00 for Windows.

human erythrocytes = experiment: Hemolysis of human erythrocytes (HC50)
B. subtilis = experiment: Modified NCCLS microbroth dilution MIC assay; details: Bacillus subtilis

Structure (SMILES): NCCc1cc(Br)cc(C#Cc2cccc(C#Cc3cc(Br)cc(CCN)c3)c2)c1 [Compound 3]
- MIC90 (E. coli [1]; read-out: MIC90 E. Coli): 0.8 µg/mL (≈ 1.53 µM)
- MIC (E. coli [1]; 18 to 20 hours incubation, OD 600 nm): 0.8 µg/mL (≈ 1.53 µM)
- MBC (E. coli [1]; E. coli D31, defined as >3 log reduction in bacterial titre): 0.8 µg/mL (≈ 1.53 µM)
- MIC100 Bacillus cereus (Bacillus cereus): 1.7 µg/mL (≈ 3.25 µM)
- MIC100 Escherichia coli 6C4468 (Escherichia coli): 1.7 µg/mL (≈ 3.25 µM)
- MIC100 Escherichia coli CIS (Escherichia coli): 1.7 µg/mL (≈ 3.25 µM)
- MIC100 Escherichia coli D31 (Escherichia coli): 0.84 µg/mL (≈ 1.61 µM)
- MIC100 Enterobacter cloacae (Enterobacter cloacae): 1.7 µg/mL (≈ 3.25 µM)
- MIC100 Enterococcus faecalis (Enterococcus faecalis): 0.84 µg/mL (≈ 1.61 µM)
- MIC100 Klebsiella aerogenes (Klebsiella aerogenes): 3.4 µg/mL (≈ 6.51 µM)
- MIC100 Klebsiella pneumoniae (Klebsiella pneumoniae): 1.7 µg/mL (≈ 3.25 µM)
- MIC100 Listeria monocytogenes (Listeria monocytogenes): 1.7 µg/mL (≈ 3.25 µM)
- MIC100 Moraxella catarrhalis (Moraxella catarrhalis): 0.84 µg/mL (≈ 1.61 µM)
- MIC100 Neisseria sicca (Neisseria sicca): 3.4 µg/mL (≈ 6.51 µM)
- MIC100 Proteus mirabilis (Proteus mirabilis): > 6.6 µg/mL
- MIC100 Pseudomonas stuarti (Pseudomonas stuarti): > 6.6 µg/mL
- MIC100 Proteus vulgaris (Proteus vulgaris): 3.4 µg/mL (≈ 6.51 µM)
- MIC100 Pseudomonas aeruginosa (Pseudomonas aeruginosa): 3.4 µg/mL (≈ 6.51 µM)
- MIC100 Serratia marcescens (Serratia marcescens): 3.4 µg/mL (≈ 6.51 µM)
- MIC100 Staphylococcus aureus (Staphylococcus aureus [2]): 1.7 µg/mL (≈ 3.25 µM)
- MIC100 Staphylococcus epidermidis [3]: 0.8 µg/mL (≈ 1.53 µM)
- MIC100 Staphylococcus saprophyticus [4]: 0.8 µg/mL (≈ 1.53 µM)
- MIC100 Streptococcus agalactiae (Streptococcus agalactiae): 0.4 µg/mL (≈ 0.766 µM)
- MIC (B. anthracis [5]; Bacillus anthracis, 24 h, read-out: MIC100 B. anthracis (24 hr)): 1 µg/mL (≈ 1.91 µM)
- Time course of growth inhibition of Bacillus anthracis (B. anthracis [5]; growth recorded at 2 hour intervals over 24 hours (FIG. 3)): complete inhibition of growth at early and late time points
- MIC (Y. pestis): 4 µg/mL (≈ 7.66 µM)
- MIC (B. anthracis [6]; read-out: MIC100 B. anthracis 127): 1 µg/mL (≈ 1.91 µM)
- MIC (B. anthracis [6]; read-out: MIC100 B. anthracis 1099): 1 µg/mL (≈ 1.91 µM)
- MIC (B. anthracis [6]; read-out: MIC100 B. anthracis 7611R): 2 µg/mL (≈ 3.83 µM)
- MIC (B. anthracis [6]; read-out: MIC100 B. anthracis A3): 1 µg/mL (≈ 1.91 µM)
- MIC (B. anthracis [6]; read-out: MIC100 B. anthracis A19): 1 µg/mL (≈ 1.91 µM)
- MIC (B. anthracis [6]; read-out: MIC100 B. anthracis A58): 1 µg/mL (≈ 1.91 µM)
- MIC (B. anthracis [6]; read-out: MIC100 B. anthracis A60): 1 µg/mL (≈ 1.91 µM)
- MIC (B. anthracis [6]; read-out: MIC100 B. anthracis A73): 1 µg/mL (≈ 1.91 µM)
- MIC (B. anthracis [6]; read-out: MIC100 B. anthracis A74): 2 µg/mL (≈ 3.83 µM)
- MIC (B. anthracis [6]; read-out: MIC100 B. anthracis AC1): 1 µg/mL (≈ 1.91 µM)
- MIC (B. anthracis [6]; read-out: MIC100 B. anthracis RA3R): 1 µg/mL (≈ 1.91 µM)
- MIC (B. anthracis [6]; read-out: MIC100 B. anthracis Vollum): 2 µg/mL (≈ 3.83 µM)
- MIC (F. tularensis; read-out: MIC100 F. tularensis 17135): 1 µg/mL (≈ 1.91 µM)
- MIC (F. tularensis; read-out: MIC100 F. tularensis 17137): 1 µg/mL (≈ 1.91 µM)
- MIC (Staphylococcus aureus [7]): 2 µg/mL (≈ 3.83 µM)
- MIC (E. coli [8]; strain ATCC25922, read-out: MIC100 E. coli ATCC25922): 2 µg/mL (≈ 3.83 µM)
- MIC (E. coli [8]; strain OC2530, read-out: MIC100 E. coli OC2530): 0.5 µg/mL (≈ 0.957 µM)
- MIC ([9]; ATCC 29213 / MRSA, strain ATCC29213 (Table 6), read-out: MIC100 S. aureus ATCC29213): 0.5 µg/mL (≈ 0.957 µM)
- MIC ([9]; MRSA, methicillin-resistant S. aureus OC2878, read-out: MIC100 MRSA OC2878): 0.5 µg/mL (≈ 0.957 µM)
- mic (MIC100) Candida albicans (Candida albicans): 0.5 and 1
- mic (MIC100) Haemophilus influenzae (Haemophilus influenzae): 4
- mic (MIC100) Streptococcus pyogenes (Streptococcus pyogenes): 2 and 4
- mic (MIC100) Streptococcus pneumoniae (Streptococcus pneumoniae; clinical isolates, no phenotype given, Mueller Hinton+2-5% lysed horse blood, in µg/mL): 2
- mic (MIC100) Streptococcus pneumoniae ATCC 49619 (Streptococcus pneumoniae; control strain ATCC 49619): 2 µg/mL
- mic (MIC100) Streptococcus pneumoniae PEN-R (Streptococcus pneumoniae; penicillin-resistant clinical isolates, Mueller Hinton+2-5% lysed horse blood, in µg/mL): 2 and 1
- IC50 [10]: 5.07 µM
- Hemolysis HC50 (human erythrocytes; human erythrocytes, one hour incubation, 50% hemoglobin release, Table 1): 75 µg/mL
- HC50 (human erythrocytes; human erythrocytes, Table 2): 75 µg/mL
- Selectivity HC50/MIC E.coli (human erythrocytes; ratio of HC50 to E. coli MIC): 88.2
- MIC (B. subtilis; read-out: B. subtilis MIC): 1.6 µg/mL (≈ 3.06 µM)
- MIC90 (B. subtilis; read-out: MIC90 B. subtilis): 1.6 µg/mL (≈ 3.06 µM)
